The source of these data is ChEMBL document CHEMBL5154644, “Design, Synthesis, and Structure-Activity Relationship Optimization of Pyrazolopyrimidine Amide Inhibitors of Phosphoinositide 3-Kinase γ (PI3Kγ)” (J Med Chem, 2022).

As a reminder, the IC50 is the midpoint of a concentration-inhibition curve.

For the assay, the target named is T1, Cytochrome P450 1A2 (Homo sapiens, UniProt P05177).
T1 sequence (P05177 whole entry): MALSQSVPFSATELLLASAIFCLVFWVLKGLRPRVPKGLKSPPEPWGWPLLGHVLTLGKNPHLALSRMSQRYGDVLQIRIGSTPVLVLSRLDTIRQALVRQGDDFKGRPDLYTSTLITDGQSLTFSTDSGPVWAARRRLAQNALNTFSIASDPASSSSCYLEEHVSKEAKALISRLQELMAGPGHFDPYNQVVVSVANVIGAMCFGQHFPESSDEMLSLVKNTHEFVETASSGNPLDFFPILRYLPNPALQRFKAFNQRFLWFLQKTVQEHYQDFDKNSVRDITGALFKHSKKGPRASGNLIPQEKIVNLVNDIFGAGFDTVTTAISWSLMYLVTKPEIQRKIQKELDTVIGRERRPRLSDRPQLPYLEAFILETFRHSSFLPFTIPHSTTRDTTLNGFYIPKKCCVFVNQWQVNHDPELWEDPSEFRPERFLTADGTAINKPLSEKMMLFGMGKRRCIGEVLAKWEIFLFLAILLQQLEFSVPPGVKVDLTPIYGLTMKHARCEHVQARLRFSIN
The assay can be described thus: Time dependent inhibition of CYP1A2 in human liver microsomes at 40 uM using phenacetin as substrate measured after 5 to 20 mins in presence of NADPH by LC/MS/MS analysis. In kind it is ADME, Microsome.

With `C[C@@H](C1CC1)N1Cc2cc(-c3ccn4nc(N)c(C(=O)N[C@H]5CC[C@@](C)(O)CC5)c4n3)cc(OC(F)F)c2C1=O`, the IC50 was above 20 µM.
